Measured values: ChEMBL document CHEMBL3875146, “Mycobacterium Tuberculosis (MTB) GyrB inhibitors: An attractive approach for developing novel drugs against TB” (Eur J Med Chem, 2016)
Values after ≈ are worked out from the molar mass of the structure shown.

What was measured:
[1] = system: Mycobacterium tuberculosis; test: Antimycobacterial activity against Mycobacterium tuberculosis; assay type: functional
[2] = Inhibition of Escherichia coli DNA gyrase assessed as inhibition of DNA supercoiling activity using relaxed pBR322 as substrate incubated for 30 mins in presence of ATP by ethidium bromide staining based agarose gel electrophoresis
[3] = target: T1, DNA gyrase subunit A/DNA gyrase subunit B (Mycobacterium tuberculosis (strain ATCC 25618 / H37Rv), UniProt P9WG45+P9WG47); test: Inhibition of Mycobacterium tuberculosis DNA gyrase assessed as inhibition of DNA supercoiling activity using relaxed pBR322 as substrate incubated for 30 mins in presence of ATP by ethidium bromide staining based agarose gel electrophoresis
[4] = Inhibition of Staphylococcus aureus WCUH29 DNA gyrase expressed in Escherichia coli Rosetta 2 (DE3) pLysS cells assessed as inhibition of DNA supercoiling activity using relaxed pBR322 as substrate incubated for 30 mins in presence of ATP by ethidium bromide staining based agarose gel electrophoresis
[5] = system: Mycobacterium tuberculosis; test: Inhibition of Mycobacterium tuberculosis topoisomerase-1 using DNA as substrate preincubated for 15 mins followed by substrate addition measured after 30 mins by ethidium-bromide based agarose gel electrophoresis
[6] = target: DNA gyrase subunit A/DNA gyrase subunit B (Mycobacterium tuberculosis (strain ATCC 25618 / H37Rv)) (UniProt P9WG45+P9WG47); test: (§1) Inhibition of Mycobacterium tuberculosis DNA gyrase assessed as inhibition of DNA supercoiling activity using relaxed pBR322 as substrate incubated for 30 mins by ethidium bromide staining based agarose gel electrophoresis
[7] = target: DNA gyrase subunit B (Mycobacterium smegmatis) (UniProt P0C559); test: Inhibition of Mycobacterium smegmatis DNA gyrase-B ATPase activity after 30 mins by ammonium molybdate/malachite green-based phosphate detection assay; settings: Mycolicibacterium smegmatis
[8] = system: Mycobacterium tuberculosis; test: Antimycobacterial activity against Mycobacterium tuberculosis measured after 5 days by microplate alamar blue assay; assay type: functional; settings: 120 h
[9] = Cytotoxicity against mouse RAW264.7 cells assessed as inhibition of cell viability at 100 uM measured after 72 hrs by MTT assay relative to control; assay type: toxicity; settings: read-out: INH
[10] = target: T1, DNA gyrase subunit A/DNA gyrase subunit B; test: as §1
DNA gyrase subunit B = DNA gyrase subunit B (Mycobacterium smegmatis, UniProt P0C559); test: Inhibition of Mycobacterium smegmatis DNA gyrase B expressed in BL21(DE3)pLysS cells assessed as inhibition of […] activity in presence of ATP measured after 30 mins by malachite green dye based assay; assay type: cell-based, Mycolicibacterium smegmatis
Escherichia coli = test: Antimicrobial activity against Escherichia coli; assay type: functional

Sequence of DNA gyrase subunit B (P0C559 whole entry): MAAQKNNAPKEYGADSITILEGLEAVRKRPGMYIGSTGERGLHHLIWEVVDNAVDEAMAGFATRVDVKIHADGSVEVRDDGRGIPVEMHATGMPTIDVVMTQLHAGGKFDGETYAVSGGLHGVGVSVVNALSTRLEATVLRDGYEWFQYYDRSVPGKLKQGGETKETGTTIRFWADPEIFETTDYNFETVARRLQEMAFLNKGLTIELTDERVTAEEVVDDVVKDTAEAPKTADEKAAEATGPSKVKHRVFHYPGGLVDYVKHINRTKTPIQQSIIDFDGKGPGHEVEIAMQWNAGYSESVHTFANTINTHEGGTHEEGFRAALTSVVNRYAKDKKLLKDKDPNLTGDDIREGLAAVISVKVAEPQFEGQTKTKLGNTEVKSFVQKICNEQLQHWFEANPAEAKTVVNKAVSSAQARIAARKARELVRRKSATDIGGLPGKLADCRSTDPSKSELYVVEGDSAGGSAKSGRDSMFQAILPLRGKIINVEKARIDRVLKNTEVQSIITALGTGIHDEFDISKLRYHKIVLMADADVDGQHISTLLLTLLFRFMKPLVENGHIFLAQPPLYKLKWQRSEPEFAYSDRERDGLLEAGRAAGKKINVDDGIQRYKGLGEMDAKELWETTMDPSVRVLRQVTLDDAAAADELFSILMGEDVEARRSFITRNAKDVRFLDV
T1 sequence (P9WG45 whole entry): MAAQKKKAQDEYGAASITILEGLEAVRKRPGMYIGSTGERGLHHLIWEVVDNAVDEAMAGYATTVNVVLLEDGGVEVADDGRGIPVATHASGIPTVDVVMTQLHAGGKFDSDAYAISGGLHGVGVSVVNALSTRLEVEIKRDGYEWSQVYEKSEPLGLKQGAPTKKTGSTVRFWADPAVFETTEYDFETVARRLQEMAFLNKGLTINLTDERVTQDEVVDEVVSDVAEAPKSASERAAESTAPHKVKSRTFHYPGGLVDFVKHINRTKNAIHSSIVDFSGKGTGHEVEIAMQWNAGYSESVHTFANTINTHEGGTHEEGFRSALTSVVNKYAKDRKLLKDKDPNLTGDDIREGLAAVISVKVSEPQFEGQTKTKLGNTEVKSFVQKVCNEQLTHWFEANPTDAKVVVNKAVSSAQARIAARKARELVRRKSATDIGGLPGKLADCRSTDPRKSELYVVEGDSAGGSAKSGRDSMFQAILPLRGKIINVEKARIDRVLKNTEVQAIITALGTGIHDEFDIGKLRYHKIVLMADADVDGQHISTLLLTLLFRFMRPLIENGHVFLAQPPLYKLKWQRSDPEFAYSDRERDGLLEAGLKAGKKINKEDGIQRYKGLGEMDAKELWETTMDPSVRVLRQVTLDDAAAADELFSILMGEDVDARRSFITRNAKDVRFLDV
T1 sequence (P9WG47 whole entry): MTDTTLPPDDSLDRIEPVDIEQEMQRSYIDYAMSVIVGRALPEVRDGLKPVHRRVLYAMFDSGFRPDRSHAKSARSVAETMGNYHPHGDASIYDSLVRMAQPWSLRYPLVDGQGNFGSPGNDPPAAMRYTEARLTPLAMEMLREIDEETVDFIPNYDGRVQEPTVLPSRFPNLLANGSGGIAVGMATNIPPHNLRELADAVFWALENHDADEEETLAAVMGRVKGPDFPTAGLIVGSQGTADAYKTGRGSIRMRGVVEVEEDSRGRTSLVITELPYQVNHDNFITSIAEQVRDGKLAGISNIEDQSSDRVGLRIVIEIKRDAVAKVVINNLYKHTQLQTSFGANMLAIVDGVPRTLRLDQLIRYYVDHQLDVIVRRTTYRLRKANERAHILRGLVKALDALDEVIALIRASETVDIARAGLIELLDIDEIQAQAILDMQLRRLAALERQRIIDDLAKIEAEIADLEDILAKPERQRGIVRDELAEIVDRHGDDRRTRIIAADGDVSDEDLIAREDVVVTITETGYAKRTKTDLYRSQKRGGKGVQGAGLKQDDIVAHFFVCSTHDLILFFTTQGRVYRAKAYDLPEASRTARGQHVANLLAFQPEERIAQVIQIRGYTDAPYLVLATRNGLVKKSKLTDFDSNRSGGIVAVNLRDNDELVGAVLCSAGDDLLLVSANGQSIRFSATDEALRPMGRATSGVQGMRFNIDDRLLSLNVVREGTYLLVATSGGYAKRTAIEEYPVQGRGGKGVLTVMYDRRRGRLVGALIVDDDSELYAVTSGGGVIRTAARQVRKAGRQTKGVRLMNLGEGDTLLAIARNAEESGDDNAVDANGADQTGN
Sequence of DNA gyrase subunit B (Mycobacterium smegmatis) (P0C559 2-675 limits assumed): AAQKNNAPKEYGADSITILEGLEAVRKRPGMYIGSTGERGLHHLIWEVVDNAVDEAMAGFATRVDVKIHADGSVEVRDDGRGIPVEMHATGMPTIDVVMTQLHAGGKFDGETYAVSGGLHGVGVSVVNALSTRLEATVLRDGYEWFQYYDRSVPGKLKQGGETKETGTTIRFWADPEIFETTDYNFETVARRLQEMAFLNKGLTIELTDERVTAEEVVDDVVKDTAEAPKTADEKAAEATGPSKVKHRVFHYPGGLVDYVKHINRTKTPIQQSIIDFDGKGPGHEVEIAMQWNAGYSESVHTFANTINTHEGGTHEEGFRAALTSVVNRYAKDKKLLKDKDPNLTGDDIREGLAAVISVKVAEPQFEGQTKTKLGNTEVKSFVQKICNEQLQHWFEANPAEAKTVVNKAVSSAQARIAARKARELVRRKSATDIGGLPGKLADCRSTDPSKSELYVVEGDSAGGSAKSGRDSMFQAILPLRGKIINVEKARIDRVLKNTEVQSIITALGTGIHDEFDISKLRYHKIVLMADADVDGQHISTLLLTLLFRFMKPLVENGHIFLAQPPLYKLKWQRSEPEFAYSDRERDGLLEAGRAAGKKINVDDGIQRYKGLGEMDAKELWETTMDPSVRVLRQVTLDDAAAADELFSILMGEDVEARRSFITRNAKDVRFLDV

SMILES | cytotoxicity at 72 h, 100 µM [9] | IC50 [10] | IC50 (DNA gyrase subunit B) | further results
COc1ccc2ncc(=O)n(-c3cnc4c(c3)CCC(NCc3ccc5c(n3)NC(=O)CO5)C4)c2n1 (centres undefined) |  |  |  | MIC [1]: 300 to 2000 µg/mL (≈ 618 to 4120 µM)
O=C1COc2ccc(CNC3CCN(CC4CCc5c(F)ccc6ccc(=O)n4c56)CC3)nc2N1 (centres undefined) |  |  |  | MIC [1]: 300 to 2000 µg/mL (≈ 628 to 4190 µM)
Cc1cc(O)c2c(c1)C(=O)C=CC2=O [RAMENTACEONE] |  |  |  | IC50 [2]: 30 µM; IC50 [3]: 30 µM; IC50 [4]: 60 µM
Brc1c2ccccc2c(Br)c2nc(-c3ccco3)c(-c3ccco3)nc12 |  |  |  | INH [5]: 0.1 µM
Fc1ccc(/N=N/c2cnc3cc4ccccc4cc3n2)cc1 |  |  |  | INH [6]: 50 µM
CCNC(=O)Nc1nc2cc(-c3cncnc3)c(OCC3CCOCC3)nc2s1 |  |  |  | INH [7]: 2.5 nM; MIC [8]: 60 µg/mL (≈ 145 µM)
Cn1ccc2cc(-c3cnc4nc(-c5ccccc5)cnc4c3)ccc21 |  |  |  | INH [5]: 0.1 µM
O=C1CSc2ccc(CNC3CCN(CC4CCN5C(=O)C=CC6N=CC(=O)N4C65)CC3)nc2N1 (centres undefined) |  |  |  | MIC [1]: 300 to 2000 µg/mL (≈ 605 to 4040 µM)
Cc1cc(O)c2c(c1)C(=O)C(c1c(C)cc3c(c1O)C(=O)C=CC3=O)=CC2=O [DIOSPYRIN] |  |  |  | IC50 [2]: 4 µM; IC50 [3]: 15 µM; IC50 [4]: 8 µM
c1ccc(N2CCC(Cc3nc4cc5ccccc5cc4nc3CN3CCN(c4ccccn4)CC3)CC2)nc1 |  |  |  | INH [5]: 7.5 µM
Clc1ccc(/N=N/c2cnc3cc4ccccc4cc3n2)cc1 |  |  |  | INH [6]: 12 µM
O=C1C(=O)N(CCN2CCN(NCc3ccccc3F)CC2)c2ccc(F)cc21 | 22.1% | 4.2 µM | 20.3 µM | 
O=C1C(=O)N(CCN2CCN(NCc3ccc(Cl)cc3Cl)CC2)c2ccc(F)cc21 | 13.9% | 24.2 µM | 43 µM | 
Cc1ccc(-c2cnc3cc(-c4ccc5[nH]ccc5c4)cnc3n2)cc1 |  |  |  | INH [5]: 0.1 µM
COc1ccccc1CNN1CCN(CCN2C(=O)C(=O)c3cc(C)ccc32)CC1 | 9.42% | 5 µM | 14.1 µM | 
Clc1cccc(-c2cnc3cc(-c4ccc5cn[nH]c5c4)cnc3n2)c1 |  |  |  | INH [5]: 7.5 µM
Cc1cc(O)c2c(c1)C(O)CCC2=O (centres undefined) |  |  |  | IC50 [3]: > 200 µM

SMILES | cytotoxicity at 72 h, 100 µM [9] | IC50 [10] | IC50 (DNA gyrase subunit B) | further results
CCCCCCN1CCC(CCC(O)c2ccnc3ccc(OC)cc23)C(CC)C1 (centres undefined) |  |  |  | MIC (Escherichia coli): 4000 µg/mL (≈ 9690 µM)
COc1ccc2c(c1)C(=O)C(=O)N2CCN1CCN(NCc2ccccc2OC)CC1 | 15.4% | 48.6 µM | 81.2 µM | 
Cc1cc(O)c2c(c1)C(=O)C=C(c1c(C)cc(O)c3c1C(=O)C=CC3=O)C2=O [NEODIOSPYRIN] |  |  |  | IC50 [3]: 50 µM
O=C1C(=O)N(CCN2CCN(NCc3cccc(Cl)c3Cl)CC2)c2ccccc21 | 16.8% | 4.8 µM | 21.7 µM | 
O=C1C(=O)N(CCN2CCN(NCc3ccccc3C(F)(F)F)CC2)c2ccc(F)cc21 | 20.6% | 3.6 µM | 10.6 µM | 
O=C1C(=O)N(CCN2CCN(NCc3cccc(Cl)c3Cl)CC2)c2ccc(Cl)cc21 | 17.4% | 25.6 µM | 43.2 µM | 
O=C1COc2ccc(CNC3CCN(CCn4c(=O)ccc5cc(F)ccc54)CC3)nc2N1 |  |  |  | MIC [1]: 300 to 2000 µg/mL (≈ 664 to 4430 µM)
CC1=CC(=O)c2ccccc2C1=O [MENADIONE] |  |  |  | IC50 [3]: > 200 µM
O=C1C(=O)N(CCN2CCN(NCc3ccccc3OCc3ccccc3)CC2)c2ccc(Cl)cc21 | 26.8% | 3.8 µM | 13.8 µM | 
O=C1C(=O)N(CCN2CCN(NCc3ccccc3C(F)(F)F)CC2)c2ccccc21 | 4.2% | 25 µM | 51 µM | 
COc1ccc2c(c1)C(=O)C(=O)N2CCN1CCN(NCc2cccc(Cl)c2Cl)CC1 | 23.9% | 48.6 µM | 73 µM | 
Cc1cc2c(c(O)c1-c1c(C)cc(O)c3c1C(=O)C=CC3=O)C(=O)C=CC2=O |  |  |  | IC50 [3]: 100 µM
O=C1C(=O)N(CCN2CCN(NCc3ccc(Cl)cc3Cl)CC2)c2ccc(Cl)cc21 | 24% | 50 µM | 68 µM | 
O=C1C(=O)N(CCN2CCN(NCc3ccc([N+](=O)[O-])o3)CC2)c2ccc(Cl)cc21 | 34.2% | 23.9 µM | 47.5 µM | 
O=C1C(=O)N(CCN2CCN(NCc3ccccc3C(F)(F)F)CC2)c2ccc(Cl)cc21 | 16.4% | 4.9 µM | 22.1 µM | 
Cc1ccc2c(c1)C(=O)C(=O)N2CCN1CCN(NCc2cccc(Cl)c2Cl)CC1 | 27.8% | 43.1 µM | 53.6 µM | 
COc1ccc2c(c1)C(=O)C(=O)N2CCN1CCN(NCc2ccccc2)CC1 | 21.6% | 48.2 µM | 92 µM | 
